Test results from patent US20160318987A1 (MEDIMMUNE LIMITED, priority 2013, published 2016).
“Also recorded” adds a separate entry of the source. Values belong to the substance of their own block, whether it stands above or below them.

Experiments:
Trypsin = test: 1 mg/mL lyophilized trypsin from porcine pancreas in 50 mM Tris, 10 mM CaCl2, 150 mM NaCl, 1 mM HCl, pH 7.8; conditions: 37° C., up to over 18 hours
Chymotrypsin (rhCTRC) = test: 1.0 μg rhCTRC in 900 μL assay buffer: 50 mM Tris, 10 mM CaCl2, 150 mM NaCl, 1 mM HCl, pH 7.8; conditions: 37° C., up to over 60 hours
[1] = system: Trypsin, Sigma P7409 (Type II-S); test: 1 mg/mL lyophilized trypsin from porcine pancreas in 50 mM Tris, 10 mM CaCl2, 150 mM NaCl, 1 mM HCl, pH 7.8; conditions: 37° C., up to over 18 hours
[2] = system: Neprilysin (Neutral endopeptidase, rhNEP); test: 1.0 μg rhNEP in 900 μL assay buffer: 50 mM Tris, 50 mM NaCl, 50 mM NaHCO3, pH 8.3; conditions: 37° C., up to 240 hours

Substance: H-(Aib)^2-EG-(S)^5-(α-MeF)^6-TSDV^10 SS-(α-MeF)^13-LE^15 GQAA-(α-MeK)^20 E-(α-MeF)^22-IA-(α-MeF)^25-(V)^26-V-(α-MeK)^28-G-(G)30
not cleaved (Trypsin): significantly extended stability for over 18 hours
not cleaved (Chymotrypsin (rhCTRC)): stability for over 60 hours, with no major cleavage products observed

not cleaved [1]: intact
Substance: H-(Aib)^2-EG-(S)^5-(α-MeF)^6-TSDV^10 SS-(α-MeF)^13-LE^15 GQAAK^20 E-(α-MeF)^22-IA-(α-MeF)^25 L-(Aib)^27-K-(Aib)^29-R^30

cleaved bond (Chymotrypsin (rhCTRC)): Leu26-Val27, by 48 hours
Substance: H-(Aib)^2-EG-(S)^5-(α-MeF)^6-TSDV^10 SS-(α-MeF)^13-LE^15 GQAAK^20 E-(α-MeF)^22-IA-(α-MeF)^25 LVKGR^30
cleaved bond (Trypsin): Lys20-E21, by 90 minutes; also recorded: Lys28-G29, by 90 minutes
not cleaved [2]: no proteolytic degradation over a 96 hour time-course; still stable after 10 days

Substance: H-(Aib)^2-EGT^5 FTSDV^10 SSYLE^15 GQAAK^20 EFIAW^25 LVKGR^30
cleaved bond (Trypsin): Lys20-E21, by 90 minutes; also recorded: Lys28-G29, by 90 minutes
cleaved bond [2]: T5-Phe6; also recorded: S12-Tyr13; also recorded: E21-Phe22; also recorded: A24-Trp25
